Data from patent US20200170990A1, “METHOD FOR TREATING SCHNITZLER'S SYNDROME” (OLATEC THERAPEUTICS LLC, priority 2017, published 2020).

Experiments:
[1] = test system: IL-1β release from human monocytes-derived macrophages; assay: Suppression of IL-1β release from human monocytes-derived macrophages (LPS priming, nigericin release, ELISA); assay type: cell-based
Protocol: Peripheral blood mononuclear cells (PBMCs) were isolated from blood of 11 healthy human donors and differenciates in macrophages using GM-CSF (5 ng/ml) for 5 days. They were stimulated with 1 μg/mL with lipopolysaccharide (LPS, priming phase) at time zero. At 30 minutes, they were incubated with different concentrations of dapansutrile (OLT1177®) from 0.001-50 μM. At 4 hours, 10 μM of nigericin (NIG, release phase) was added. At the end of an 5 hour incubation period, the supernatant was harvested and assayed for IL-1β using respective ELISA kits following manafacturer's protocols.

[2] = test system: zymosan-induced knee joint swelling in mice; assay: Zymosan-induced knee arthritis in mice: macroscopic joint swelling; assay type: in vivo; settings: 600 mg/kg oral gavage, zymosan 180 μg intra-articular, 24 hours, vs vehicle-treated mice
Protocol: Zymosan injected directly into the knee joint of mice elicits an inflammatory response and is used as a model of arthritis (Verschure et al, Ann. Rheum Dis. 53:455-460, 1994). Endpoints measured in this model include knee joint swelling score, cytokine levels in the synovial tissue and microscopic pathology of the knee.
(§1) Arthritis was induced in mice by intra-articular injection of zymosan (180 μg) into the knee joint (at time zero) of both knees in each mouse. Mice were treated by oral gavage with vehicle (water, n=5) or dapansutrile in vehicle (600 mg/kg, n=4) at times −25 hr, −13 hr, and −1 hr. After zymosan injection at time zero, mice were further treated with vehicle or dapansutrile (600 mg/kg) at times +11 hr and +23 hr. Mice were sacrificed 24 hours following the Zymosan intraarticulr idministration.
Macroscopic joint swelling was assessed on all knees after the skin is removed using a scoring system ranging from 0 to 3, with 0 being no swelling and 3 being severe swelling.

[3] = test system: mouse IL-1β in synovial membrane; assay: Zymosan-induced knee arthritis in mice: IL-1β in synovial membrane (ELISA); assay type: in vivo; settings: 600 mg/kg oral gavage, 24 hours, vs untreated mice
Protocol: as §1
In addition, synovial membrane was taken from one knee per mouse and the cells were lysed for measurement of mouse IL-1β, using an ELISA kit from R&D Systems, Inc., following manufacturer's protocols. The results are shown as mean±standard error of mean and statistical evaluation is performed.

[4] = test system: caspase-1 (p10) in J774A.1 cells; assay: Western blot for caspase-1 (p45 and p10) in J774A.1 cells after LPS/ATP stimulation; assay type: cell-based, mouse
Protocol: (§2) J774A.1 murine macrophages cells were stimulated with 1 μg/ml lipopolysaccharide (LPS) for 4 hours and either nigericin (NIG, 10 μM) or ATP (5 mM) was added for 1 hour. Dapansutrile OLT1177® was added to the cells either 30 minutes following LPS stimulation or at the same time as ATP.
A subunit of activated caspase-1 (p10) was reduced in J774A.1 cells in the presence of dapansutrile.

[5] = test system: caspase-1 activity in J774A.1 cells; assay: Caspase-1 activity in J774A.1 cell lysates after LPS and nigericin stimulation; assay type: cell-based, mouse; settings: 50 μM, LPS/NIG set at 100%, n=3, p<0.05
Protocol: as §2
Caspase-1 activity is expressed as percent change of the mean value of each assay (n=3) with LPS/NIG set at 100%. Caspase-1 (Cas-1) activity was reduced by 35% (p<0.05) in an enzymatic assay of cell lysate from stimulated cells in the presence of dapansutrile, comparing with control.

[6] = in vivo; cited from earlier work

Molecule	Release of IL-1β from stimulated monocytes-derived macrophages ([1]; LPS priming, nigericin release, compared to control)	Concentration at which maximum suppression effect on IL-1β release was observed ([1]; human monocytes-derived macrophages, LPS 1 μg/mL + nigericin 10 μM, tested 0.001-50 μM)	Macroscopic joint swelling (score 0 to 3) [2]	Level of IL-1β in synovial membrane [3]	Subunit of activated caspase-1 (p10), Western blot [4]	Reduction of caspase-1 activity [5]	Half-life [6]
CS(=O)(=O)CCC#N [dapansutrile, 3-methanesulfonylpropionitrile]	suppresses the release of IL-1β	1 µM	significant reduction in the joint swelling	significantly reduced	reduced	35%	–
Canakinumab: fully human selective monoclonal anti-IL-1β antibody	–	–	–	–	–	–	28 days
